The term IC50 denotes the point on the concentration scale where inhibition reaches its midpoint.

Where two headings read alike, the source gives them in different places. A value given as a limit tells only on which side of the number the result lay.

One assay has as its system NCI-H358 (K-Ras G12C). The assay is described as follows: CellTiter-Glo cell viability assay, NCI-H358. The format is cell-based, human. Conditions: NCI-H358, 5-day treatment, class symbols, read-out: Additional H358 Cell Viability assay data (K-Ras G12C, IC50). In a few lines:
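Compounds were dispensed directly onto K-Ras mutant cells and incubated until day 5, then plates were equilibrated to room temperature for about 30 minutes before CellTiter-Glo luminescence. Signals were normalized as (sample/average DMSO)*100 and fitted by four-parameter logistic fit.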
(ATP-based viability assays read luminescence as a measure of living cells.)

The target in the next assay is K-Ras G12C (Homo sapiens (Human), UniProt P01116+P62937, G12C). The assay is described as follows: Ras-Raf (BRAF RBD) disruption / FRET / MOA assay, KRAS G12C. Conditions: KRAS G12C; Ras-Raf disruption/FRET/MOA assay; read-out: IC50* KRAS G12C FRET data. It is filed as biochemical. The gist of the method:
(§1)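 A 10-point, 3-fold dilution series topping at 30 μM final was incubated 3 h at 25° C with the Ras/cyclophilin A/BRAF RBD mixture.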

For the next assay, the target named is K-Ras G13C (Homo sapiens (Human), UniProt P01116+P62937, G13C). In words: Ras-Raf (BRAF RBD) disruption / FRET / MOA assay, KRAS G13C. The format is biochemical. As to conditions: KRAS G13C; Ras-Raf disruption/FRET/MOA assay; read-out: IC50* KRAS G13C FRET data. In a few lines: as §1
Sequence of K-Ras G13C (P01116-2 other isoform, or with tags, fused parts or gaps G13C): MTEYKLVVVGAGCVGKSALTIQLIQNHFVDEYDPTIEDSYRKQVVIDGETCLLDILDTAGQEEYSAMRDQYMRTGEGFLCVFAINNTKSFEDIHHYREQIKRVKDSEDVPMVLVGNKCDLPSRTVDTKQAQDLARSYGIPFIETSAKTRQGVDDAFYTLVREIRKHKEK
Sequence of K-Ras G13C (P62937 whole entry): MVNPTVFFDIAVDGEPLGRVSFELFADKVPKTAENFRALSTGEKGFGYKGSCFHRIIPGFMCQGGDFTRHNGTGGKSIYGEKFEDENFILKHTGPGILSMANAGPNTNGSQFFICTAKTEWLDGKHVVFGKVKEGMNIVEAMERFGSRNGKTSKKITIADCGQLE
For the next assay, the target named is KRAS G12S (Homo sapiens (Human), UniProt P01116+P62937, G12S). The assay is described as follows: Ras-Raf (BRAF RBD) disruption / FRET / MOA assay, KRAS G12S. It is filed as biochemical. Conditions: Ras-Raf disruption/FRET/MOA assay; class symbols; read-out: KRAS G12S FRET data IC50. In a few lines: as §1
Sequence of KRAS G12S (P01116-2 other isoform, or with tags, fused parts or gaps G12S): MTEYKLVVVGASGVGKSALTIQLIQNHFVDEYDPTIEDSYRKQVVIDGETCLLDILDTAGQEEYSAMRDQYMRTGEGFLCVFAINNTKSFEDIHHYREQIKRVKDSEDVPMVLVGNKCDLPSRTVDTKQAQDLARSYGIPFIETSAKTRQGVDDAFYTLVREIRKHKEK
Sequence of KRAS G12S (P62937 whole entry): as the sequence (P62937 whole entry) above
Another assay has as its target KRAS G12D (Homo sapiens (Human), UniProt P01116+P62937, G12D). In words: Ras-Raf (BRAF RBD) disruption / FRET / MOA assay, KRAS G12D. The format is biochemical. Conditions: Ras-Raf disruption/FRET/MOA assay; class symbols; read-out: KRAS G12D FRET data IC50. In a few lines:
as §1

The next assay concerns the target KRAS G12V (Homo sapiens (Human), UniProt P01116+P62937, G12V). The assay is described as follows: Ras-Raf (BRAF RBD) disruption / FRET / MOA assay, KRAS G12V. It is filed as biochemical. As to conditions: read-out: IC50* KRAS G12V FRET data. In a few lines:
as §1

Another assay concerns the target KRAS WT (Homo sapiens (Human), UniProt P01116+P62937). The assay is described as follows: Ras-Raf (BRAF RBD) disruption / FRET / MOA assay, KRAS WT. The format is biochemical. As to conditions: read-out: IC50* KRAS WT FRET data. In a few lines: as §1
The next assay addresses KRAS G13D (Homo sapiens (Human), UniProt P01116+P62937, G13D). The assay is described as follows: Ras-Raf (BRAF RBD) disruption / FRET / MOA assay, KRAS G13D. Conditions: read-out: IC50* KRAS G13D FRET data. The format is biochemical. The gist of the method:
as §1

For the next assay, the target named is NRAS G12C (Homo sapiens (Human), UniProt P01111+P62937, G12C). In words: Ras-Raf (BRAF RBD) disruption / FRET / MOA assay, NRAS G12C. Conditions: read-out: IC50* NRAS G12C FRET data. It is filed as biochemical. In a few lines:
as §1

Sequence of K-Ras G12C (P01116-2 other isoform, or with tags, fused parts or gaps G12C): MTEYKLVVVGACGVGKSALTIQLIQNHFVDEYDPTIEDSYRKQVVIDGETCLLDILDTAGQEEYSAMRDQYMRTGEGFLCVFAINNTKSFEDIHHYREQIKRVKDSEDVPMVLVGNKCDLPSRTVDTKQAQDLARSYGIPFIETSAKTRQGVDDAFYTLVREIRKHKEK
Sequence of K-Ras G12C (P62937 whole entry): as the sequence (P62937 whole entry) above
Sequence of KRAS G13D (P01116-2 other isoform, or with tags, fused parts or gaps G13D): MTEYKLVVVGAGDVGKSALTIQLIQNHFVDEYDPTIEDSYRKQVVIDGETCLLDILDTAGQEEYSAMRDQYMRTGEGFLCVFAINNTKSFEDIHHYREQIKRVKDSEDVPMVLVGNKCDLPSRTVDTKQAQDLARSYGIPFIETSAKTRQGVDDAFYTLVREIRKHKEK
Sequence of KRAS G13D (P62937 whole entry): as the sequence (P62937 whole entry) above
Sequence of KRAS G12V (P01116-2 other isoform, or with tags, fused parts or gaps G12V): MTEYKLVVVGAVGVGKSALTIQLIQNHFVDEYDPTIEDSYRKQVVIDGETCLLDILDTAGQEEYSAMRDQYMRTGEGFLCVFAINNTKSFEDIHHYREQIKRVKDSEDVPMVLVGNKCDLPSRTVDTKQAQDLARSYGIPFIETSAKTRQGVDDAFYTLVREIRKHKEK
Sequence of KRAS G12V (P62937 whole entry): as the sequence (P62937 whole entry) above
Sequence of KRAS G12D (P01116-2 other isoform, or with tags, fused parts or gaps G12D): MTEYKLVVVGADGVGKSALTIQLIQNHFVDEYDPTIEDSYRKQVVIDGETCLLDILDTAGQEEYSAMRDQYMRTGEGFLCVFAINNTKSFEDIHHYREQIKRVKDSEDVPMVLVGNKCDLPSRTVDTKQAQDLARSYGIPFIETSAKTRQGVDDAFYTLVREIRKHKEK
Sequence of KRAS G12D (P62937 whole entry): as the sequence (P62937 whole entry) above
Sequence of KRAS WT (P01116-2 other isoform, or with tags, fused parts or gaps): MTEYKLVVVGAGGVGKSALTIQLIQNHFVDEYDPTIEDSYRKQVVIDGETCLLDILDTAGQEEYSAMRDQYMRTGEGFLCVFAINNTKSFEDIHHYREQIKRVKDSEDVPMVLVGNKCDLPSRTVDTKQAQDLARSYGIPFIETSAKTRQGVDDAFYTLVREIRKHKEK
Sequence of KRAS WT (P62937 whole entry): as the sequence (P62937 whole entry) above
Sequence of NRAS G12C (P01111 whole entry G12C): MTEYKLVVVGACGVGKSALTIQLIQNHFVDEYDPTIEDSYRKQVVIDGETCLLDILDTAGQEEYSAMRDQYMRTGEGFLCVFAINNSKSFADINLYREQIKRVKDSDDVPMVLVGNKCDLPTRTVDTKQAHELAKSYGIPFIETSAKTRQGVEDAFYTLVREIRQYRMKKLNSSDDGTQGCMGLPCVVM
Sequence of NRAS G12C (P62937 whole entry): as the sequence (P62937 whole entry) above

`C=CC(=O)N1CC[C@H](C(=O)N(C2CC2)[C@H](C(=O)N[C@H]2Cc3cccc(c3)-c3ccc4c(c3)c(c(-c3cccnc3[C@H](C)OC)n4CC)CC(C)(C)COC(=O)[C@@H]3CCCN(N3)C2=O)C(C)C)C1` (atropisomer, axis not shown) [Example A398]: the IC50 in the assay on NCI-H358 (K-Ras G12C) (Homo sapiens, NCI-H358, 120 h) is 0.1 to 1 µM; on K-Ras G12C it was 1 to 10 µM; on K-Ras G13C it was 1 to 10 µM; at KRAS G12S, over 10 µM; at KRAS G12D, over 10 µM; at KRAS G12V, 1 to 10 µM. For the same compound, the IC50 at KRAS WT was 1 to 10 µM; at KRAS G13D, over 10 µM; on NRAS G12C, 1 to 10 µM.

For `C=CC(=O)N1CC[C@H](C(=O)N(C)[C@H](C(=O)N[C@H]2Cc3cccc(c3)-c3ccc4c(c3)c(c(-c3cccnc3[C@H](C)OC)n4CC)CC(C)(C)COC(=O)[C@@H]3CCCN(N3)C2=O)C(C)C)[C@@H]1C` (atropisomer, axis not shown) [Example A480], the IC50 with NCI-H358 (K-Ras G12C) (Homo sapiens, NCI-H358, 120 h) is over 1 µM; at K-Ras G12C it was 1 to 10 µM; on K-Ras G13C it was 1 to 10 µM; on KRAS G12S, over 10 µM; at KRAS G12D, over 10 µM; at KRAS G12V, over 10 µM. Further, the IC50 at KRAS WT is over 10 µM; at KRAS G13D, over 10 µM; on NRAS G12C, 1 to 10 µM.

On to `C=CC(=O)N1CC[C@H](C(=O)N(C)[C@H](C(=O)N[C@H]2Cn3cnc(n3)-c3ccc4c(c3)c(c(-c3cccnc3[C@H](C)OC)n4CC)CC(C)(C)COC(=O)[C@@H]3CCCN(N3)C2=O)C(C)C)C1` (atropisomer, axis not shown) [Example A506], for which the IC50 in the assay on NCI-H358 (K-Ras G12C) (Homo sapiens, NCI-H358, 120 h) was 0.1 to 1 µM; on K-Ras G12C, 0.1 to 1 µM; on K-Ras G13C, 1 to 10 µM; on KRAS G12S it was 1 to 10 µM; on KRAS G12D, over 10 µM; at KRAS G12V it was 1 to 10 µM. The IC50 on KRAS WT was 1 to 10 µM; at KRAS G13D it was over 10 µM; on NRAS G12C it was 0.1 to 1 µM.

For `C=CC(=O)N1CC[C@H](C(=O)N(C)[C@H](C(=O)N[C@H]2Cc3cccc(c3)-c3ccc4c(c3)c(c(-c3cc(C5CCN(C)CC5)cnc3[C@H](C)OC)n4CC)CC(C)(C)COC(=O)[C@@H]3CCCN(N3)C2=O)C(C)C)C1` (atropisomer, axis not shown) [Example A516], the IC50 with NCI-H358 (K-Ras G12C) was over 1 µM; at K-Ras G12C it was 1 to 10 µM; at K-Ras G13C it was 1 to 10 µM; on KRAS G12S, over 10 µM; on KRAS G12D, over 10 µM; at KRAS G12V it was over 10 µM. The figures for the IC50 on KRAS WT, at KRAS G13D and on NRAS G12C were over 10 µM, over 10 µM and 1 to 10 µM, respectively.

Regarding `C=CC(=O)N1CC(OCC(C(=O)N[C@H]2Cc3cc(cc(C(F)F)c3)-c3ccc4c(c3)c(c(-c3cccnc3[C@H](C)OC)n4CC(F)(F)F)CC(C)(C)COC(=O)[C@@H]3CCCN(N3)C2=O)C(C)C)C1` (mixture of isomers) [Example A428], the IC50 in the assay with NCI-H358 (K-Ras G12C) (Homo sapiens, NCI-H358, 120 h) is over 1 µM; at K-Ras G12C it was over 10 µM; on K-Ras G13C, over 10 µM; at KRAS G12S it was over 10 µM; at KRAS G12D, over 10 µM; at KRAS G12V, over 10 µM. For the same compound, the IC50 on KRAS WT, on KRAS G13D and on NRAS G12C was over 10 µM in each case.

For the compound `C=CC(=O)N1CC(OCC(C(=O)N[C@H]2Cc3cc(cc(C(F)F)c3)-c3ccc4c(c3)c(c(-c3cccnc3[C@H](C)OC)n4CC)CC(C)(C)COC(=O)[C@@H]3CCCN(N3)C2=O)C(C)C)C1` (mixture of isomers) [Example A450], the IC50 with NCI-H358 (K-Ras G12C) (Homo sapiens, NCI-H358, 120 h) was over 1 µM; on K-Ras G12C, over 10 µM; at K-Ras G13C, over 10 µM; on KRAS G12S, over 10 µM; at KRAS G12D it was over 10 µM; at KRAS G12V, over 10 µM. The IC50 at KRAS WT, at KRAS G13D and on NRAS G12C was over 10 µM in each case.

Consider `C=CC(=O)N1CC(OCC(C(=O)N[C@H]2Cc3cccc(c3)-c3ccc4c(c3)c(c(-c3cccnc3[C@H](C)OC)n4CC)CC(C)(C)COC(=O)[C@@H]3CCCN(N3)C2=O)C(C)C)C1` (mixture of isomers) [Example A484], for which the IC50 is 0.1 to 1 µM with NCI-H358 (K-Ras G12C) (Homo sapiens, NCI-H358, 120 h); 0.1 to 1 µM at K-Ras G12C; 1 to 10 µM at K-Ras G13C; over 10 µM on KRAS G12S; over 10 µM at KRAS G12D; over 10 µM on KRAS G12V. Moreover, the values for the IC50 on KRAS WT, on KRAS G13D and at NRAS G12C were over 10 µM, over 10 µM and 1 to 10 µM, respectively.

Turning to `C=CC(=O)N1CCC(C(=O)N(C)[C@H](C(=O)N[C@H]2Cc3cc(O)cc(c3)-c3ccc4c(c3)c(c(-c3ccccc3CCOC)n4CC)CC(C)(C)c3coc(n3)[C@@H]3CCCN(N3)C2=O)C(C)C)C1` (single isomer, unassigned) [Example A231], the IC50 in the assay with NCI-H358 (K-Ras G12C) (Homo sapiens, NCI-H358, 120 h) was over 1 µM; at K-Ras G12C it was over 10 µM; at K-Ras G13C, over 10 µM; on KRAS G12S, over 10 µM; at KRAS G12D, over 10 µM; at KRAS G12V, over 10 µM. Besides, the IC50 on KRAS WT, on KRAS G13D and at NRAS G12C was over 10 µM each time.

Regarding `C=CC(=O)N1CC[C@H](C(=O)N(C)[C@H](C(=O)N[C@H]2Cc3cccc(c3)-c3ccc4c(c3)c(c(-c3cnccc3[C@H](C)OC)n4CC)CC(C)(C)COC(=O)[C@@H]3CCCN(N3)C2=O)C(C)C)C1` [Example A122], the IC50 in the assay on NCI-H358 (K-Ras G12C) (Homo sapiens, NCI-H358, 120 h) is over 1 µM; on K-Ras G12C it was over 10 µM; at K-Ras G13C, over 10 µM; at KRAS G12S it was over 10 µM; at KRAS G12D, over 10 µM; on KRAS G12V, over 10 µM. In addition, the IC50 on KRAS WT, on KRAS G13D and on NRAS G12C was over 10 µM throughout.

For the compound `C=CC(=O)N1CC[C@H](C(=O)N(C)[C@H](C(=O)N[C@H]2Cc3cc(O)cc(c3)-c3ccc4c(c3)c(c(-c3cccnc3CNC)n4CC)CC(C)(C)COC(=O)[C@@H]3CCCN(N3)C2=O)C(C)C)C1` [Example A137], the IC50 with NCI-H358 (K-Ras G12C) (Homo sapiens, NCI-H358, 120 h) is over 1 µM; on K-Ras G12C, 0.1 to 1 µM; on K-Ras G13C, over 10 µM; on KRAS G12S, 1 to 10 µM; at KRAS G12D, over 10 µM; on KRAS G12V, 1 to 10 µM. Also, the IC50 was 1 to 10 µM at KRAS WT, over 10 µM at KRAS G13D and 0.1 to 1 µM on NRAS G12C.

As to `CCn1c(-c2cccnc2COC)c2c3cc(ccc31)-c1cc(O)cc(c1)C[C@H](NC(=O)[C@H](C(C)C)N(C)C(=O)[C@H]1CCC(C(=O)/C=C\CN(C)C)C1)C(=O)N1CCC[C@H](N1)C(=O)OCC(C)(C)C2` (stereo partly drawn) [Example A161], the 50% inhibitory concentration (IC50) in the assay on NCI-H358 (K-Ras G12C) was over 1 µM; on K-Ras G12C, 0.1 to 1 µM; on K-Ras G13C, 1 to 10 µM; on KRAS G12S it was 1 to 10 µM; on KRAS G12D, over 10 µM; on KRAS G12V, 1 to 10 µM. The IC50 on KRAS WT is 1 to 10 µM; on KRAS G13D, 1 to 10 µM; on NRAS G12C, 0.1 to 1 µM.

`COCc1ncccc1-c1nc2ccc3cc2n1CC(C)(C)COC(=O)[C@@H]1CCCN(N1)C(=O)[C@@H](NC(=O)[C@H](C(C)C)N(C)C(=O)[C@H]1CCN(C(=O)C#CCN2CCOCC2)C1)Cc1cc(O)cc-3c1` [Example A188]: the IC50 in the assay on NCI-H358 (K-Ras G12C) (Homo sapiens, NCI-H358, 120 h) was over 1 µM; at K-Ras G12C, 0.1 to 1 µM; on K-Ras G13C, over 10 µM; on KRAS G12S, over 10 µM; on KRAS G12D it was over 10 µM; at KRAS G12V it was over 10 µM. In addition, the 50% inhibitory concentration (IC50) was over 10 µM at KRAS WT, over 10 µM at KRAS G13D and 0.1 to 1 µM on NRAS G12C.

The values are drawn from patent US11566007B2, “Ras inhibitors” (Revolution Medicines, Inc., priority 2019, dated 2023).
